# In PMC12261228 (ACS Pharmacology & Translational Science, 2025):
# Entries after “also recorded” stand apart in the source; their conditions may differ. Read-outs that look alike come from different tables or passages of the source.
# Key:
# CEM-DNR = assay: MTS cytotoxicity assay, 72 h; assay type: cell-based; settings: Homo sapiens, read-out: IC50 CEM-DNR
# MRC-5 = assay: MTS cytotoxicity assay, 72 h; assay type: cell-based; settings: Homo sapiens, MRC5, 72 h, read-out: IC50 MRC-5
# panel of cell lines [1] = test system: panel of cell lines
# CCRF-CEM lymphoblasts = assay: FACS analysis of cell cycle, apoptosis, mitosis and polyploidy; settings: for Mitosis: phospho-Histone (Ser10); for Apoptosis: sub-G0/G1 DNA content, % of positive cells
# HCT116 = assay: MTS cytotoxicity assay, 72 h; assay type: cell-based; settings: Homo sapiens, HCT-116, 72 h, read-out: IC50 HCT116
# HUVEC = assay: MTS cytotoxicity assay, 72 h; assay type: cell-based; settings: Homo sapiens, 3-day incubation, mean ± SD
# panel of cell lines [2] = assay: cells; settings: read-out: IC50 values, cancer cell lines
# K562 = assay: MTS cytotoxicity assay, 72 h; assay type: cell-based; settings: Homo sapiens, K562, 72 h, read-out: IC50 K562
# K562-TAX = assay: MTS cytotoxicity assay, 72 h; assay type: cell-based; settings: read-out: IC50 K562-TAX
# CCRF-CEM = assay: MTS cytotoxicity assay, 72 h; assay type: cell-based; settings: Homo sapiens, CCRF-CEM, 72 h, read-out: IC50 CCRF-CEM, MTS assay, 3-day incubation, mean ± SD of 3 experiments
# BJ = assay: MTS cytotoxicity assay, 72 h; assay type: cell-based; settings: Homo sapiens, read-out: IC50 BJ
# HCT116p53–/– = assay: MTS cytotoxicity assay, 72 h; assay type: cell-based; settings: read-out: IC50 HCT116p53–/–
# U2OS = assay: MTS cytotoxicity assay, 72 h; assay type: cell-based, human
# [3] = test system: microtubules in U2OS cells; assay: Immunofluorescence of microtubule organization; assay type: cell-based, human; settings: 10 μM, 15 h
# Protocol: DMSO at appropriate dilution served as control.
# Immunofluorescence microscopy on formaldehyde-fixed, Triton X-100 extracted cells (F/Tx) was performed as previously described. Extraction and fixation steps were carried out in a microtubule stabilizing buffer consisting of 0.1 M KMes, 2 mM EGTA, 2 mM MgCl2, 4% polyethylene glycol 6000, pH 6.9. Cells were fixed for 30 min in 3% formaldehyde before extraction for 4 min with 0.5% Triton X-100 at 37 °C. Mouse monoclonal antibody TU-01 (IgG1) directed to α-tubulin , in the form of hybridoma spent culture medium was diluted 1:10. The DyLight 549-conjugated antimouse antibody (Jackson Immunoresearch Laboratories, West Grove, PA, USA) was diluted 1:500. Samples were mounted in MOWIOL 4–88 (Calbiochem, San Diego, CA, USA) supplemented with 4,6-diamidino-2-phenylindole (DAPI; Sigma-Aldrich, St. Louis, MO, USA) and examined with an Olympus AX-70 Provis microscope (Olympus, Hamburg, Germany) equipped with a 60×/1.0 water objective.
# [4] = Homo sapiens, U2OS, 72 h, read-out: IC50 U2OS, MTS assay, 3-day incubation, mean ± SD
# [5] = read-out: IC50 U2OS, MTS assay, 3-day incubation, mean ± SD
Structure (SMILES),IC50 (CEM-DNR),IC50 (MRC-5),RI (resistance index) (panel of cell lines [1]),"G0/G1 (CCRF-CEM lymphoblasts; 1×IC50, 24 h)","G2/M (CCRF-CEM lymphoblasts; 1×IC50, 24 h)","Polyploid cells (CCRF-CEM lymphoblasts; 1×IC50, 24 h)","S (CCRF-CEM lymphoblasts; 1×IC50, 24 h)","Mitosis (CCRF-CEM lymphoblasts; 1×IC50, 24 h)","Apoptosis (CCRF-CEM lymphoblasts; 1×IC50, 24 h)","G0/G1 (CCRF-CEM lymphoblasts; 5×IC50, 24 h)","Polyploid cells (CCRF-CEM lymphoblasts; 5×IC50, 24 h)","S (CCRF-CEM lymphoblasts; 5×IC50, 24 h)","Mitosis (CCRF-CEM lymphoblasts; 5×IC50, 24 h)","Apoptosis (CCRF-CEM lymphoblasts; 5×IC50, 24 h)",IC50 (HCT116),IC50 (HUVEC),IC50 (K562),IC50 (CCRF-CEM),IC50 (BJ),IC50 (HCT116p53–/–),further results
COc1cc2c(c(OC)c1OC)-c1ccc(N(C)CCCCC3=C4C(C)=CC(C)=[N+]4[B-](F)(F)n4c(C)cc(C)c43)c(=O)cc1[C@@H](NC(C)=O)CC2 [CB11],5.49 ± 0.935 µM,> 50 µM,2.45,35.98%,30.38%,13.64%,33.64%,4.83%,5.26%,10.48%,24.88%,10.23%,59.86%,16.42%,4.93 ± 0.729 µM,5.52 ± 0.29 µM,1.85 ± 0.204 µM,2.5 ± 0.567 µM,> 50 µM,5.52 ± 0.762 µM,"SI (selectivity index) (panel of cell lines [1]): >12.87; G2/M (CCRF-CEM lymphoblasts; 5×IC50, 24 h): 79.29%; IC50 (panel of cell lines [2]): 2.5 to 9 µM; IC50 (K562-TAX): 5.18 ± 0.198 µM; IC50 (U2OS; [4]): 4.62 ± 1.23 µM"
COc1cc2c(c(OC)c1OC)-c1ccc(OC)c(=O)cc1[C@@H](n1cc(CCCCCCCCC3=C4C(C)=CC(C)=[N+]4[B-](F)(F)n4c(C)cc(C)c43)nn1)CC2 [CB5],1.39 ± 0.139 µM,> 50 µM,2.49,11.02%,85.47%,24.32%,3.51%,42.49%,9.64%,5.27%,26.07%,0.77%,60.70%,10.96%,0.64 ± 0.065 µM,0.45 ± 0.012 µM,0.5 ± 0.122 µM,0.42 ± 0.014 µM,> 50 µM,0.77 ± 0.063 µM,SI (selectivity index) (panel of cell lines [1]): >74.18; effect on microtubules (in words) [3]: completely disrupted microtubules; IC50 (K562-TAX): 0.9 ± 0.026 µM; IC50 (U2OS; [4]): < 2 µM; IC50 (U2OS; [5]): 1.04 ± 0.141 µM
COc1cc2c(c(OC)c1OC)-c1ccc(OC)c(=O)cc1[C@@H](n1cc(CCCC3=C4C(C)=CC(C)=[N+]4[B-](F)(F)n4c(C)cc(C)c43)nn1)CC2 [CB4],,> 50 µM,,41.19%,27.75%,19.29%,31.06%,2.76%,3.04%,5.49%,23.72%,1.83%,64.43%,12.24%,0.1 ± 0.004 µM,< 0.0122 µM,0.088 ± 0.013 µM,0.02 ± 0.0009 µM,> 50 µM,0.12 ± 0.012 µM,cytotoxic activity across the cell line panel (in words) (panel of cell lines [1]): changed only slightly; effect on microtubules (in words) [3]: microtubule remnants were detectable; also recorded: perinuclear bundles were observed; also recorded: disruption of microtubule organization and generation of perinuclear microtubule bundles
COc1cc2c(c(OC)c1OC)-c1ccc(OC)c(=O)cc1[C@@H](n1cc(CCCC3=C4C(C)=CC(C)=[N+]4[B-](F)(F)n4c(C)cc(C)c43)[n+](C)n1)CC2 [CB7],1.34 ± 0.229 µM,> 50 µM,1.22,26.66%,45.89%,21.60%,27.45%,19.77%,13.02%,6.62%,23.77%,4.54%,68.32%,14.67%,1.51 ± 0.33 µM,1.4 ± 0.104 µM,0.77 ± 0.0224 µM,0.84 ± 0.058 µM,> 50 µM,1.43 ± 0.162 µM,"SI (selectivity index) (panel of cell lines [1]): >38.40; G2/M (CCRF-CEM lymphoblasts; 5×IC50, 24 h): 88.84%; effect on microtubules (in words) [3]: microtubule remnants were detectable; IC50 (K562-TAX): 0.62 ± 0.084 µM; IC50 (U2OS; [4]): < 2 µM; IC50 (U2OS; [5]): 1.96 ± 0.096 µM"
COc1cc2c(c(OC)c1OC)-c1ccc(OC)c(=O)cc1[C@@H](NC(=O)CCC1=C3C(C)=CC(C)=[N+]3[B-](F)(F)n3c(C)cc(C)c31)CC2 [CB1],2.07 ± 0.212 µM,5.69 ± 0.639 µM,4.16,36.69%,38.6%,17.25%,24.71%,7.96%,5.32%,50.26%,19.14%,1.72%,17.85%,11.73%,0.5 ± 0.032 µM,0.67 ± 0.033 µM,0.45 ± 0.054 µM,0.4 ± 0.018 µM,8.35 ± 0.419 µM,0.58 ± 0.063 µM,"SI (selectivity index) (panel of cell lines [1]): 13.66; G2/M (CCRF-CEM lymphoblasts; 5×IC50, 24 h): 48.02%; effect on microtubules (in words) [3]: completely disrupted microtubules; IC50 (K562-TAX): 1.47 ± 0.361 µM"
COc1cc2c(c(OC)c1OC)-c1ccc(N(C)C(=O)CCC3=C4C(C)=CC(C)=[N+]4[B-](F)(F)n4c(C)cc(C)c43)c(=O)cc1[C@@H](NC(C)=O)CC2 [CB12],36 ± 2.04 µM,> 50 µM,4.50,32.27%,26.62%,18.91%,41.12%,9.86%,4.12%,21.05%,23.39%,25.39%,23.11%,10.47%,8.09 ± 0.268 µM,8.24 ± 0.77 µM,4.25 ± 0.89 µM,5.54 ± 0.475 µM,> 50 µM,8.35 ± 0.549 µM,"SI (selectivity index) (panel of cell lines [1]): >7.07; G2/M (CCRF-CEM lymphoblasts; 5×IC50, 24 h): 53.56%; IC50 (panel of cell lines [2]): 2.5 to 9 µM; IC50 (K562-TAX): 8.07 ± 0.706 µM; IC50 (U2OS; [4]): 9.12 ± 0.174 µM"
